{
  "source": "patent US20160158200A1",
  "about": "“Combinations of Hepatitis C Virus Inhibitors” (priority 2013, published 2016)",
  "data": [
    {"test_system": "HCV genotype-1a variant with glutamine 30 changed to glutamate in the NS5A protein", "format": "cell-based", "settings": "test compound titrated with BMS-790052 fixed at 200 nM; genotype 1a Q30E replicon", "summary_of_the_method": "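Synergy was assessed by combining several fixed amounts of an NS5A-targeting compound with a titration of the second compound of interest.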", "units": {"Fold-Synergistic 1a (Q30E)": "fold"}, "values": [
      {"smiles": "CC(C)(C)[C@H](NC(=O)[C@@](C)(O)c1ccccc1)c1nc(-c2ccc(-c3ccc(-c4c[nH]c([C@@H](NC(=O)[C@@](C)(O)c5ccccc5)C(C)(C)C)n4)cc3)cc2)c[nH]1", "note": "[Compound L-95]", "Fold-Synergistic 1a (Q30E)": ">100"},
      {"smiles": "CCN(CC)S(=O)(=O)NC(c1nc(-c2ccc(-c3ccc(-c4c[nH]c(C(NS(=O)(=O)N(CC)CC)C(C)(C)C)n4)cc3)cc2)c[nH]1)C(C)(C)C", "note": "[Compound L-121]", "Fold-Synergistic 1a (Q30E)": ">100"},
      {"smiles": "Cc1onc(-c2ccccc2)c1C(=O)N1CCC[C@H]1c1ncc(-c2ccc(-c3ccc(-c4cnc([C@@H]5CCCN5C(=O)c5c(-c6ccccc6)noc5C)[nH]4)cc3)cc2)[nH]1", "note": "[Compound S-118]", "Fold-Synergistic 1a (Q30E)": "<10"},
      {"smiles": "CC(C)(C(=O)N[C@H](c1nc(-c2ccc(-c3ccc(-c4c[nH]c([C@@H](NC(=O)C(C)(C)C(O)C5CCC(F)(F)CC5)C(C)(C)C)n4)cc3)cc2)c[nH]1)C(C)(C)C)C(O)C1CCC(F)(F)CC1", "note": "(single isomer, unassigned) [Compound N-143C]", "Fold-Synergistic 1a (Q30E)": ">100"},
      {"smiles": "CC(C)(C)C(=O)N[C@H](c1ncc(-c2ccc3cc(-c4ccc5nc([C@@H](NC(=O)C(C)(C)C)C(C)(C)C)[nH]c5c4)ccc3c2)[nH]1)C(C)(C)C", "note": "[Compound B54]", "Fold-Synergistic 1a (Q30E)": ">100"},
      {"smiles": "CC(C)(C)[C@H](NC(=O)C1(C2(O)CCC(F)(F)CC2)CC1)c1nc2ccc(C#Cc3ccc4nc([C@@H](NC(=O)C5(C6(O)CCC(F)(F)CC6)CC5)C(C)(C)C)[nH]c4c3)cc2[nH]1.O=C(O)C(F)(F)F", "note": "[Compound B41B]", "Fold-Synergistic 1a (Q30E)": ">100"},
      {"smiles": "COC1(C(=O)C(=O)N[C@H](c2ncc(-c3ccc(-c4ccc(-c5cnc([C@@H](NC(=O)C(=O)C6(OC)CCC6)C(C)C)[nH]5)cc4)cc3)[nH]2)C(C)C)CCC1", "note": "[Compound P-116]", "Fold-Synergistic 1a (Q30E)": ">100"},
      {"smiles": "COC1(C(=O)C(=O)N[C@H](c2ncc(-c3ccc(-c4ccc(-c5cnc([C@@H](NC(=O)C(=O)C6(OC)CCC(F)(F)CC6)C(C)C)[nH]5)cc4)cc3)[nH]2)C(C)C)CCC(F)(F)CC1", "note": "[Compound P-126]", "Fold-Synergistic 1a (Q30E)": ">100"},
      {"smiles": "COC(=O)N(C)[C@H](C(=O)N[C@H](c1ncc(-c2ccc(-c3ccc(-c4cnc([C@@H](NC(=O)[C@H](C(C)C)N(C)C(=O)OC)C(C)C)[nH]4)cc3)cc2)[nH]1)C(C)C)C(C)C", "note": "[Compound P-107]", "Fold-Synergistic 1a (Q30E)": ">100"},
      {"smiles": "CN1CCN(C(=O)C(=O)N[C@H](c2nc(-c3ccc(-c4ccc(-c5c[nH]c([C@@H](NC(=O)C(=O)N6CCN(C)CC6)C(C)(C)C)n5)cc4)cc3)c[nH]2)C(C)(C)C)CC1", "note": "[Compound W-35]", "Fold-Synergistic 1a (Q30E)": ">100"},
      {"smiles": "Cc1cc(-c2ccc(-c3c[nH]c([C@@H](NC(=O)c4ccc(Cl)s4)C(C)C)n3)cc2)ccc1-c1c[nH]c([C@@H](NC(=O)c2ccc(Cl)s2)C(C)C)n1.O=C(O)C(F)(F)F", "note": "[Compound N-83]", "Fold-Synergistic 1a (Q30E)": ">100"},
      {"smiles": "CC(C)[C@H](NC(=O)c1sccc1F)c1ncc(-c2ccc(-c3ccc(-c4cnc([C@@H](NC(=O)c5sccc5F)C(C)C)[nH]4)cc3)cc2)[nH]1", "note": "[Compound Y-28]", "Fold-Synergistic 1a (Q30E)": ">100"},
      {"smiles": "CC(C)(C)OC(=O)N1CCCC1C(=O)N[C@H](c1nc(-c2ccc(-c3ccc(-c4c[nH]c([C@@H](NC(=O)C5CCCN5C(=O)OC(C)(C)C)C(C)(C)C)n4)cc3)cc2)c[nH]1)C(C)(C)C", "note": "(some centres unmarked) [Compound W-86]", "Fold-Synergistic 1a (Q30E)": ">100"},
      {"smiles": "CC(C)(C)OC(=O)NC1CCC(C(=O)N[C@H](c2nc(-c3ccc(-c4ccc(-c5c[nH]c([C@@H](NC(=O)C6CCC(NC(=O)OC(C)(C)C)CC6)C(C)(C)C)n5)cc4)cc3)c[nH]2)C(C)(C)C)CC1", "note": "(some centres unmarked) [Compound S-270]", "Fold-Synergistic 1a (Q30E)": ">100"},
      {"smiles": "O=C(N[C@H]1CCC[C@H]1c1nc(-c2ccc(-c3ccc(-c4c[nH]c([C@@H]5CCC[C@@H]5NC(=O)C5CCC(F)(F)CC5)n4)cc3)cc2)c[nH]1)C1CCC(F)(F)CC1", "note": "[Compound L-106]", "Fold-Synergistic 1a (Q30E)": ">100"},
      {"smiles": "CCC(=O)N[C@H](c1ncc(-c2ccc(-c3ccc(-c4cnc([C@@H](NC(=O)CC)C(C)C)[nH]4)cc3)cc2)[nH]1)C(C)C", "note": "[Compound S-31]", "Fold-Synergistic 1a (Q30E)": ">100"},
      {"smiles": "COC(=O)C1(C(=O)N[C@H](c2nc(-c3ccc(-c4ccc(-c5c[nH]c([C@@H](NC(=O)C6(C(=O)OC)CCCCC6)C(C)(C)C)n5)cc4)cc3)c[nH]2)C(C)(C)C)CCCCC1", "note": "[Compound S-273]", "Fold-Synergistic 1a (Q30E)": ">100"},
      {"smiles": "CC(C)[C@H](NC(=O)C1CC1)c1ncc(-c2ccc(-c3ccc(-c4cnc([C@@H](NC(=O)C5CC5)C(C)C)[nH]4)cc3)cc2)[nH]1", "note": "[Compound S-20]", "Fold-Synergistic 1a (Q30E)": ">100"},
      {"smiles": "CC(C)CC(=O)N1C[C@@H](C)C[C@H]1c1nc(-c2ccc(-c3ccc(-c4c[nH]c([C@@H]5C[C@H](C)CN5C(=O)CC(C)C)n4)cc3)cc2)c[nH]1", "note": "[Compound P-51]", "Fold-Synergistic 1a (Q30E)": "<10"},
      {"smiles": "Cn1cccc1C(O)C(C)(C)C(=O)N[C@H](c1nc(-c2ccc(-c3ccc(-c4c[nH]c([C@@H](NC(=O)C(C)(C)C(O)c5cccn5C)C(C)(C)C)n4)cc3)cc2)c[nH]1)C(C)(C)C", "note": "(mixture of isomers) [Compound N-129]", "Fold-Synergistic 1a (Q30E)": ">100"},
      {"smiles": "CC(C)[C@H](NC(=O)C1(CO)CC(F)(F)C1)c1nc(-c2ccc(-c3ccc(-c4c[nH]c([C@@H](NC(=O)C5(CO)CC(F)(F)C5)C(C)C)n4)cc3)cc2)c[nH]1", "note": "[Compound N-154]", "Fold-Synergistic 1a (Q30E)": ">100"},
      {"smiles": "CC(C)(C)[C@H](NC(=O)C1CCC(F)(F)CC1)c1ncc(-c2ccc(-c3ccc4nc([C@@H](NC(=O)C5CCC(F)(F)CC5)C(C)(C)C)[nH]c4c3)cc2)[nH]1", "note": "[Compound B58]", "Fold-Synergistic 1a (Q30E)": ">100"},
      {"smiles": "CC(C)C(=O)NC1(C(=O)N[C@H](c2nc(-c3ccc(-c4ccc(-c5c[nH]c([C@@H](NC(=O)C6(NC(=O)C(C)C)CCCCC6)C(C)(C)C)n5)cc4)cc3)c[nH]2)C(C)(C)C)CCCCC1", "note": "[Compound W-266]", "Fold-Synergistic 1a (Q30E)": ">100"},
      {"smiles": "CCCOC(=O)N[C@H](c1ncc(-c2ccc(-c3ccc(-c4cnc([C@@H](NC(=O)OCCC)C(C)C)[nH]4)cc3)cc2)[nH]1)C(C)C", "note": "[Compound S-208]", "Fold-Synergistic 1a (Q30E)": ">100"},
      {"smiles": "O=C(c1cnc(Cl)c(Cl)c1)N1CCC[C@H]1c1ncc(-c2ccc(-c3ccc(C4=CNC([C@@H]5CCCN5C(=O)c5cnc(Cl)c(Cl)c5)N4)cc3)cc2)[nH]1", "note": "(some centres unmarked) [Compound S-133]", "Fold-Synergistic 1a (Q30E)": "<10"},
      {"smiles": "CC(C)(C)[C@H](NC(=O)C1CC12CCOCC2)c1ncc(-c2ccc(-c3ccc(-c4cnc([C@@H](NC(=O)C5CC56CCOCC6)C(C)(C)C)[nH]4)cc3)cc2)[nH]1", "note": "(single isomer, unassigned) [Compound B71]", "Fold-Synergistic 1a (Q30E)": ">100"},
      {"smiles": "COc1ccccc1C(O)C(C)(C)C(=O)N[C@H](c1nc(-c2ccc(-c3ccc(-c4c[nH]c([C@@H](NC(=O)C(C)(C)C(O)c5ccccc5OC)C(C)(C)C)n4)cc3)cc2)c[nH]1)C(C)(C)C", "note": "(single isomer, unassigned) [Compound N-125B]", "Fold-Synergistic 1a (Q30E)": ">100"},
      {"smiles": "CC(C)(C)[C@H](NC(=O)Cc1ccccc1OC(F)(F)F)c1nc(-c2ccc(-c3ccc(-c4c[nH]c([C@@H](NC(=O)Cc5ccccc5OC(F)(F)F)C(C)(C)C)n4)cc3)cc2)c[nH]1", "note": "[Compound Y-73]", "Fold-Synergistic 1a (Q30E)": ">100"},
      {"smiles": "CC(C)[C@H](NC(=O)C1(C(F)(F)F)CCCC1)c1ncc(-c2ccc(-c3ccc(-c4cnc([C@@H](NC(=O)C5(C(F)(F)F)CCCC5)C(C)C)[nH]4)cc3)cc2)[nH]1", "note": "[Compound P-80]", "Fold-Synergistic 1a (Q30E)": ">100"},
      {"smiles": "CC(C)C(C)(C)C(=O)N[C@H](c1ncc(-c2ccc(-c3ccc(-c4cnc([C@@H](NC(=O)C(C)(C)C(C)C)C(C)(C)C)[nH]4)cc3)cc2)[nH]1)C(C)(C)C", "note": "[Compound B88]", "Fold-Synergistic 1a (Q30E)": ">100"},
      {"smiles": "C=CC(C)(C)C(=O)N[C@H](c1nc(-c2ccc(-c3ccc(-c4cnc([C@@H](NC(=O)C(C)(C)C=C)C(C)(C)C)[nH]4)cc3)cc2)c[nH]1)C(C)(C)C.O=C(O)C(F)(F)F", "note": "[Compound B-166]", "Fold-Synergistic 1a (Q30E)": ">100"},
      {"smiles": "CC(C)N(C(=O)C(=O)N[C@H](c1nc(-c2ccc(-c3ccc(-c4c[nH]c([C@@H](NC(=O)C(=O)N(C(C)C)C5CC5)C5(C)CC5)n4)cc3)cc2)c[nH]1)C1(C)CC1)C1CC1", "note": "[Compound W-58]", "Fold-Synergistic 1a (Q30E)": ">100"},
      {"smiles": "CC(C)[C@H](NC(=O)C(C)(C)F)c1ncc(-c2ccc(-c3ccc(-c4cnc([C@@H](NC(=O)C(C)(C)F)C(C)C)[nH]4)cc3)cc2)[nH]1", "note": "[Compound P-99]", "Fold-Synergistic 1a (Q30E)": ">100"},
      {"smiles": "CN1CCC[C@H]1C(=O)N[C@H](c1nc(-c2ccc(-c3ccc(-c4c[nH]c([C@@H](NC(=O)[C@@H]5CCCN5C)C(C)(C)C)n4)cc3)cc2)c[nH]1)C(C)(C)C", "note": "[Compound P-36]", "Fold-Synergistic 1a (Q30E)": ">10"},
      {"smiles": "CC1([C@H](NC(=O)C2CCC(F)(F)CC2)c2ncc(-c3ccc(-c4ccc(-c5cnc([C@@H](NC(=O)C6CCC(F)(F)CC6)C6(C)CC6)[nH]5)cc4)cc3)[nH]2)CC1", "note": "[Compound Y-34]", "Fold-Synergistic 1a (Q30E)": ">100"},
      {"smiles": "CC(C)(C)[C@H](NC(=O)C1CCC(F)(F)CC1)c1ncc(-c2ccc3cc4cc(-c5cnc([C@@H](NC(=O)C6CCC(F)(F)CC6)C(C)(C)C)[nH]5)ccc4cc3c2)[nH]1", "note": "[Compound B26]", "Fold-Synergistic 1a (Q30E)": ">100"},
      {"smiles": "CC1(O)CC(C(=O)N[C@H](c2nc(-c3ccc(-c4ccc(-c5c[nH]c([C@@H](NC(=O)C6CC(C)(O)C6)C(C)(C)C)n5)cc4)cc3)c[nH]2)C(C)(C)C)C1", "note": "(single isomer, unassigned) [Compound W-170]", "Fold-Synergistic 1a (Q30E)": ">100"},
      {"smiles": "CC1(C(=O)NC(c2nc(-c3ccc(-c4ccc(-c5c[nH]c(C(NC(=O)C6(C)CCCCCO6)C(C)(C)C)n5)cc4)cc3)c[nH]2)C(C)(C)C)CCCCCO1", "note": "(centres unmarked) [Compound Y-91]", "Fold-Synergistic 1a (Q30E)": ">100"},
      {"smiles": "CC(C)(C)C(=O)N[C@H](c1ncc(-c2ccc(-c3ccc(-c4cnc([C@@H](NC(=O)C(C)(C)C)C(C)(C)CF)[nH]4)cc3)cc2)[nH]1)C(C)(C)CF", "note": "[Compound Y-68]", "Fold-Synergistic 1a (Q30E)": ">100"},
      {"smiles": "Cc1cc(-c2ccc(-c3c[nH]c([C@@H](NC(=O)C4(C)CCCC4)C(C)C)n3)cc2)ccc1-c1c[nH]c([C@@H](NC(=O)C2(C)CCCC2)C(C)C)n1.O=C(O)C(F)(F)F", "note": "[Compound N-80]", "Fold-Synergistic 1a (Q30E)": ">100"},
      {"smiles": "CC(C)CC(=O)NC(c1nc(-c2ccc(-c3ccc(-c4cn(C)c(C(NC(=O)CC(C)C)C(C)C)n4)cc3)cc2)cn1C)C(C)C.O=C(O)C(F)(F)F.O=C(O)C(F)(F)F", "note": "(centres unmarked) [Compound Y-18]", "Fold-Synergistic 1a (Q30E)": "<10"}
    ]}
  ]
}
